Measurements published in patent US20200390899A1, “AMINOBENZAZEPINE COMPOUNDS, IMMUNOCONJUGATES, AND USES THEREOF” (BOLT BIOTHERAPEUTICS, INC., priority 2019, published 2020).
Where two headings read alike, the source gives them in different places.

Assays:
human TLR7 = molecular target: T1, human TLR7 (Homo sapiens, UniProt Q9NYK1); experiment: HEK293 NFKB reporter assay, human TLR7; format: cell-based
T1 construct: host or cells: HEK293 reporter cells
T1 sequence (Q9NYK1 27-1049): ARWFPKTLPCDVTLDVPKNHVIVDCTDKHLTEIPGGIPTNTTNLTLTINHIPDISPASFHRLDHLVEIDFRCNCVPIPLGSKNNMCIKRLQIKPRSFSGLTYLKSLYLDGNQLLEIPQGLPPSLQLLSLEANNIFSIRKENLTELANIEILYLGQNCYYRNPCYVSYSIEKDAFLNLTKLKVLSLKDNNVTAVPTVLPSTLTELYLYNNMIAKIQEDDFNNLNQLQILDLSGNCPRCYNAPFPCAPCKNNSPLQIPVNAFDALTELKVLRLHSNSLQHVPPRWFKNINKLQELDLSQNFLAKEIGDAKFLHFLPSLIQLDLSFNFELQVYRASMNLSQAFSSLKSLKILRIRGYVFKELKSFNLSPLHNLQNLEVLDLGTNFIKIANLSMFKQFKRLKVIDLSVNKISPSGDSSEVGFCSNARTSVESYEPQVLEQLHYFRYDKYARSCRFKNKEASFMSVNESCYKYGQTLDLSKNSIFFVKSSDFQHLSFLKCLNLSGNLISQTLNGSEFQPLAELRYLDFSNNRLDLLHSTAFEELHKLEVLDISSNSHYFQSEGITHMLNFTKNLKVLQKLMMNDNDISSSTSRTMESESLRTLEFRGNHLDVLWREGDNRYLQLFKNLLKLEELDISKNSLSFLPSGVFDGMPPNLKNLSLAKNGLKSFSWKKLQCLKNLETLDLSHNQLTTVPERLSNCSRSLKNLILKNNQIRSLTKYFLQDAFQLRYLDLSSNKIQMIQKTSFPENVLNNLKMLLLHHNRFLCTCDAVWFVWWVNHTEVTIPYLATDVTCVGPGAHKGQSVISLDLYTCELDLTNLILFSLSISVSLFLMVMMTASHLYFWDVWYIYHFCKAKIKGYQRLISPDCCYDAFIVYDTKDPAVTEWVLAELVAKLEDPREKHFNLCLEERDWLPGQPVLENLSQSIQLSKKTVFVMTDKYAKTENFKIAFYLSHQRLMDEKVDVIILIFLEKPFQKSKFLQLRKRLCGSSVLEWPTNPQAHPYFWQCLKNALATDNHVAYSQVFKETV
Method: (§1) Each compound was synthesized and purified by the methods in the Examples provided herein, characterized by mass spectrometry, and shown to have the mass indicated. Activity against HEK293 NFKB reporter cells expressing human TLR7 or human TLR8 was measured according to Example 68.
(§2) HEK293 reporter cells expressing human TLR7 or human TLR8 were purchased from Invivogen and vendor protocols were followed for cellular propagation and experimentation. Briefly, cells were grown to 80-85% confluence at 5% CO2 in DMEM supplemented with 10% FBS, Zeocin, and Blasticidin. Cells were then seeded in 96-well flat plates at 4×10^4cells/well with substrate containing HEK detection medium and immunostimulatory molecules. Activity was measured using a plate reader at 620-655 nm wavelength.

human TLR8 = molecular target: T2, human TLR8 (Homo sapiens, UniProt Q9NR97); experiment: HEK293 NFKB reporter assay, human TLR8; format: cell-based
T2 construct: host or cells: HEK293 reporter cells
T2 sequence (Q9NR97 27-1041): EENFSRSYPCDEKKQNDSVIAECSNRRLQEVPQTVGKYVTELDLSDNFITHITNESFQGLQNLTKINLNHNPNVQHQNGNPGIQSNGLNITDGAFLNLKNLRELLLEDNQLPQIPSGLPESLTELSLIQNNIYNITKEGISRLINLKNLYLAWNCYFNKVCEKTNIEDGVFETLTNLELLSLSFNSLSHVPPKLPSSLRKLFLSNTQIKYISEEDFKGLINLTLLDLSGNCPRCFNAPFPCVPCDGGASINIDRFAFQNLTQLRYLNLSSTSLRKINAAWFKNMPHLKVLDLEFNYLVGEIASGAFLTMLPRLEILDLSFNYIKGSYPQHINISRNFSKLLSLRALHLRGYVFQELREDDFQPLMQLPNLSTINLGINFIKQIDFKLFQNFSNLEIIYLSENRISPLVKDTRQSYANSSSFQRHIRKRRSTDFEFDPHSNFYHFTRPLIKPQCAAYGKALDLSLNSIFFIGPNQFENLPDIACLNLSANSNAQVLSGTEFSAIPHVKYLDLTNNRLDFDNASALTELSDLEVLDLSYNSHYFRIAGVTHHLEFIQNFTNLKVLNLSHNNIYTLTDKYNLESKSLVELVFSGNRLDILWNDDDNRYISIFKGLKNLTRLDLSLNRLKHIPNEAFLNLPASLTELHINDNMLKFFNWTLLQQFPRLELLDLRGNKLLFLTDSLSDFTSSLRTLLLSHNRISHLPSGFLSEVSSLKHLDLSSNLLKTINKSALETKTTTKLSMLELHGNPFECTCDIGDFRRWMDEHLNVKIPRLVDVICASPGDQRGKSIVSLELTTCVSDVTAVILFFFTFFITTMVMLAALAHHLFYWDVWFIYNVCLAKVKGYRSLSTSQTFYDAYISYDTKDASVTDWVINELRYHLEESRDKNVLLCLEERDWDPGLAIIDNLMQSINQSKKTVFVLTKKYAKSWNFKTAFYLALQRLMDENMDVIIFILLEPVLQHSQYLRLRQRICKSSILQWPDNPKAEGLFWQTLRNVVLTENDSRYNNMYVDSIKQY
Method: as §1, §2

[1] = Table 1a, HEK293 reporter cells expressing human TLR7, read-out: HEK293 hTLR7 EC50
[2] = Table 1a, HEK293 reporter cells expressing human TLR8, read-out: HEK293 hTLR8 EC50
[3] = Table 1b, HEK293 reporter cells expressing human TLR7, read-out: HEK293 hTLR7 EC50
[4] = Table 1b, HEK293 reporter cells expressing human TLR8, read-out: HEK293 hTLR8 EC50

EC50 (human TLR7; [3])	EC50 (human TLR8; [4])	SMILES	further results
		CCCN(CCCNC(=O)OCC)C(=O)C1=Cc2ccc(-c3cccc(S(=O)(=O)N4CC(CO)C4)c3)cc2N=C(N)C1 [Bz-13, ethyl N-[3-[[2-amino-8-[3-[3-(hydroxymethyl)azetidin-1-yl]sulfonylphenyl]-3H-1-benzazepine-4-carbonyl]-propyl-amino]propyl]carbamate]	EC50 (human TLR7): 1.37 µM; EC50 (human TLR8): 0.134 µM
		CCCN(CCC)C(=O)C1=Cc2c(CCCCN)cc(-c3cccc(S(=O)(=O)N4CC(CO)C4)c3)cc2N=C(N)C1 [Bz-14, 2-Amino-6-(4-aminobutyl)-8-(3-((3-(hydroxymethyl)azetidin-1-yl)sulfonyl)phenyl)-N,N-dipropyl-3H-benzo[b]azepine-4-carboxamide]	EC50 (human TLR7; [1]): > 9 µM; EC50 (human TLR8; [2]): 1.7 µM
		CCCN(CCC)C(=O)C1=Cc2ccc(-c3cccc(S(=O)(=O)N4CC(CN)C4)c3)cc2N=C(N)C1 [Bz-15, 2-amino-8-[3-[3-(aminomethyl)azetidin-1-yl]sulfonylphenyl]-N,N-dipropyl-3H-1-benzazepine-4-carboxamide]	EC50 (human TLR7; [1]): > 9 µM; EC50 (human TLR8; [2]): 0.103 µM
		CCCN(CCCNC(=O)OC(C)(C)C)C(=O)C1=Cc2ccc(C(=O)Nc3ccc(N4CCC(C(=O)NCCNC(C)=O)CC4)nc3)cc2N=C(N)C1 [Bz-16, tert-butyl (3-(8-((6-(4-((2-acetamidoethyl)carbamoyl)piperidin-1-yl)pyridin-3-yl)carbamoyl)-2-amino-N-propyl-3H-benzo[b]azepine-4-carboxamido)propyl)carbamate]	EC50 (human TLR7; [1]): > 9 µM; EC50 (human TLR8; [2]): 1.05 µM
> 9 µM	> 9 µM	CCCN(CCCN)C(=O)C1=Cc2ccc(-c3cccc(S(=O)(=O)N4CC(CO)C4)c3)cc2N=C(N)C1 [Bz-17, 2-amino-N-(3-aminopropyl)-8-[3-[3-(hydroxymethyl)azetidin-1-yl]sulfonylphenyl]-N-propyl-3H-1-benzazepine-4-carboxamide]	
1.99 µM	3.4 µM	CCCN(CCCOCCCN)C(=O)C1=Cc2ccc(-c3cccc(S(=O)(=O)N4CC(CO)C4)c3)cc2N=C(N)C1 [Bz-18, 2-amino-N-(3-(3-aminopropoxy)propyl)-8-(3-((3-(hydroxymethyl)azetidin-1-yl)sulfonyl)phenyl)-N-propyl-3H-benzo[b]azepine-4-carboxamide]	
1.07 µM	3.17 µM	CCCN(CCCNC(=O)CC(C)(C)C)C(=O)C1=Cc2ccc(-c3cccc(S(=O)(=O)N4CC(CO)C4)c3)cc2N=C(N)C1 [Bz-19, 2-amino-N-(3-(3,3-dimethylbutanamido)propyl)-8-(3-((3-(hydroxymethyl)azetidin-1-yl)sulfonyl)phenyl)-N-propyl-3H-benzo[b]azepine-4-carboxamide]	
> 9 µM	> 9 µM	CCCN(CCCCCN)C(=O)C1=Cc2ccc(-c3cccc(S(=O)(=O)N4CC(CO)C4)c3)cc2N=C(N)C1 [Bz-20, 2-amino-N-(5-aminopentyl)-8-(3-((3-(hydroxymethyl)azetidin-1-yl)sulfonyl)phenyl)-N-propyl-3H-benzo[b]azepine-4-carboxamide]	
> 9 µM	> 9 µM	CCCN(CCCOCCOCCN)C(=O)C1=Cc2ccc(-c3cccc(S(=O)(=O)N4CC(CO)C4)c3)cc2N=C(N)C1 [Bz-21, 2-amino-N-(3-(2-(2-aminoethoxy)ethoxy)propyl)-8-(3-((3-(hydroxymethyl)azetidin-1-yl)sulfonyl)phenyl)-N-propyl-3H-benzo[b]azepine-4-carboxamide]	
> 9 µM	> 9 µM	CCCN(C/C=C/CN)C(=O)C1=Cc2ccc(-c3cccc(S(=O)(=O)N4CC(CO)C4)c3)cc2N=C(N)C1 [Bz-22, 2-amino-N-[(E)-4-aminobut-2-enyl]-8-[3-[3-(hydroxymethyl)azetidin-1-yl]sulfonylphenyl]-N-propyl-3H-1-benzazepine-4-carboxamide]	
2.43 µM	1.16 µM	CCCN(CCCNc1ncccn1)C(=O)C1=Cc2ccc(-c3cccc(S(=O)(=O)N4CC(CO)C4)c3)cc2N=C(N)C1 [Bz-23, 2-amino-8-[3-[3-(hydroxymethyl)azetidin-1-yl]sulfonylphenyl]-N-propyl-N-[3-(pyrimidin-2-ylamino)propyl]-3H-1-benzazepine-4-carboxamide]	
> 9 µM	> 9 µM	CCCN(CCCCN)C(=O)C1=Cc2ccc(-c3cccc(S(=O)(=O)N4CC(CO)C4)c3)cc2N=C(N)C1 [Bz-24, 2-amino-N-(4-aminobutyl)-8-[3-[3-(hydroxymethyl)azetidin-1-yl]sulfonylphenyl]-N-propyl-3H-1-benzazepine-4-carboxamide]	
> 9 µM	1.4 µM	CCCN(CCc1ccc(OC)cc1)C(=O)C1=Cc2ccc(-c3cccc(S(=O)(=O)N4CC(CO)C4)c3)cc2N=C(N)C1 [Bz-25, 2-amino-8-[3-[3-(hydroxymethyl)azetidin-1-yl]sulfonylphenyl]-N-[2-(4-methoxyphenyl)ethyl]-N-propyl-3H-1-benzazepine-4-carboxamide]	
> 9 µM	0.318 µM	CCCN(CC#CCNC(=O)OC(C)(C)C)C(=O)C1=Cc2ccc(-c3cccc(S(=O)(=O)N4CC(CO)C4)c3)cc2N=C(N)C1 [Bz-26, tert-butyl N-[4-[[2-amino-8-[3-[3-(hydroxymethyl)azetidin-1-yl]sulfonylphenyl]-3H-1-benzazepine-4-carbonyl]-propyl-amino]but-2-ynyl]carbamate]	
> 9 µM	0.138 µM	CCCN(Cc1ccc(CN)cc1)C(=O)C1=Cc2ccc(-c3cccc(S(=O)(=O)N4CC(CO)C4)c3)cc2N=C(N)C1 [Bz-27, 2-Amino-N-(4-(aminomethyl)benzyl)-8-(3-((3-(hydroxymethyl)azetidin-1-yl)sulfonyl)phenyl)-N-propyl-3H-benzo[b]azepine-4-carboxamide]	
4.25 µM	0.0428 µM	CCCN(CC#CCNC(=O)OC(C)(C)C)C(=O)C1=Cc2ccc(-c3cccc(S(=O)(=O)N4CC(CN(C)C)C4)c3)cc2N=C(N)C1 [Bz-28, tert-butyl N-[4-[[2-amino-8-[3-[3-[(dimethylamino)methyl]azetidin-1-yl]sulfonylphenyl]-3H-1-benzazepine-4-carbonyl]-propyl-amino]but-2-ynyl]carbamate]	
> 9 µM	0.032 µM	CCCN(OCC)C(=O)C1=Cc2ccc(-c3cccc(S(=O)(=O)N4CC(CO)C4)c3)cc2N=C(N)C1 [Bz-29, 2-amino-N-ethoxy-8-[3-[3-(hydroxylmethyl)azetidin-1-yl]sulfonylphenyl]-N-propyl-3H-1-benzazepine-4-carboxamide]	
